US7662819B2, “Pteridinone derivatives for use as stearoyl CoA desaturase inhibitors” (Gilead Palo Alto, Inc., priority 2007, dated 2010)

Target: T1, stearoyl-CoA desaturase (SCD) (Rattus norvegicus, UniProt P07308)
T1 construct: from tissue; host or cells: liver microsomes of male Sprague Dawley rats, with SCD induced by a carbohydrate-rich diet after fasting/feeding cycles
T1 sequence (P07308 1-358): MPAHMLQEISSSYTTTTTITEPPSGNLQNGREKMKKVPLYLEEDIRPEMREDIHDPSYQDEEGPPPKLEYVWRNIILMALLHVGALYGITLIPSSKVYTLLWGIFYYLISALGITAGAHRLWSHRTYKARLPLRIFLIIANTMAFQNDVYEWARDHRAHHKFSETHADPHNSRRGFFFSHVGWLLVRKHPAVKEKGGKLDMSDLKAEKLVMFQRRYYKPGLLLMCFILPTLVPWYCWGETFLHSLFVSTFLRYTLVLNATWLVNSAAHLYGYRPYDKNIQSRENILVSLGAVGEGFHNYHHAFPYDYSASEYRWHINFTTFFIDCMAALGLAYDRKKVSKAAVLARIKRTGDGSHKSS
Test: SCD assay in rat liver microsomes ([3H]stearoyl CoA desaturation, adapted from Talamo and Bloch)
Assay type: biochemical
Settings: rat liver microsomes 0.2 mg/ml assay final, 30 min preincubation, 45 min reaction, room temperature
Text: The identification of compounds of the invention as SCD inhibitors was readily accomplished using the SCD enzyme and microsomal assay procedure described in Talamo and Bloch (1969) Analytical Biochemistry 29:300-304.
The rat liver microsomes were collected according to the procedure described in Ozols (1990) Methods Enzm, 182:225.
Male Spraque Dawley Rats were placed on regimented fasting protocol for one week to stimulate SCD enzymatic activity. 48-hour periods were alternated between feeding and fasting to induce and down-regulate SCD activity with SCD activity being induced via carbohydrate rich diet prior to liver perfusion and collection.
The rats were anesthetized with Isoflurane inhalation anesthetic, the liver perfused with cold phosphate buffered saline (PBS), weighed, and chilled in cold homogenization buffer (250 mM sucrose, 10 mM Tris, 1 mM EDTA, pH 7.6.
The livers were finely minced and placed in homogenization tube. 40 mL of homogenization buffer was added to the homogenization tube and the liver homogenized and centrifuged in a pre-chilled […] for 10 min at 4° C.
Following centrifugation, the supernatant was collected and the pellet removed and discarded. The supernatant was centrifuge at 10,000 G for 35 minutes. Following centrifugation, the supernatant was collect and the pellet discarded. The supernatant was then centrifuged in a pre-chilled 45-Ti rotor at 130,000 G (41,000 RPM) for 90 minutes at 4° C.
The supernatant was then aspirated off and the collected microsomal pellet washed in 25 mL of Glycerol PBS (1×PBS 7.4, 20% Glycerol) and resuspended in 4-5 volumes of Glycerol PBS.
The protein concentration of the microsomal preparation was determined by BCA assay (Pierce) and the microsomes were aliquoted and stored at −80° C.
Biobeads were ground to a smaller size in a mortar and pestle and resuspended in 3.6% TCA. The beads were then filtered through […] mesh.
SCD was determined in the desaturase assay buffer. This assay buffer contained 0.1 M Tris buffer, pH 7.2, 2 mM NADH, 4.8 mM ATP, 0.5 mM CoA, 4.8 mM MgCl2, and 0.1% BSA.
The Procedure for the SCD Assay (Adapted from Talamo and Bloch (1969) Analytical Biochemistry 29:300-304)
1 μl of each compound of Formula I was added to an assay plate by a low volume (0.5-10 μL) multichannel pipette. A DMSO control was also prepared. The microsomes were quickly thawed and added to assay buffer so that a concentration of 0.4 mg/ml was achieved (0.2 mg/ml assay final). 50 μl of the microsome suspension in assay buffer was then added into each well in the compound assay plate, the plate was covered, and the microsomes preincubated with the compounds for 30 minutes on the orbital shaker, 50-75 rpm, at room temperature.
After preincubation, the reaction was initiated by the addition of 50 μl of substrate solution (20 μM Stearoyl CoA, [3H]Stearoyl CoA, 74 nCi) to the preincubated microsomes/compound suspensions in MilliQ (Millipore) H2O. The reaction mixtures were then incubated for 45 minutes on the orbital shaker at 50-75 rpm at room temperature.
The reaction was terminated by the addition of 10 μl of 21% […] (TCA) to the reaction mixture followed incubation on the orbital shaker for 30 minutes at 50-75 rpm at room temperature followed by centrifugation for 5 minutes at 3700 rpm.
50 μl of a 6% Bio-Bead suspension in H2O was added to the reaction mixture and the assay plate was sealed. The Bio-Bead mixture was incubated on the orbital shaker for 1 hour, 100-150 rpm at room temperature, and then the mixture was centrifuged at 2000 g for 5 minutes to pellet the Bio-Beads.
25 μl of the supernatant was harvested from each well and transferred to a detection plate. 100 μl of OptiPhase SuperMix scinitillation cocktail (containing sufficient NaOH to neutralize the TCA) was added and the solutions mixed by vigorous shaking (300-400 rpm) for 5 minutes at room temperature. […]

| Structure (SMILES) | IC50 |
| --- | --- |
| COc1ccc(-c2nc3cnc(NCc4ccc(Cl)c(Cl)c4)nc3n(CCNC(C)=O)c2=O)cc1 [Compound 1, N-[2-(2-{[(3,4-dichlorophenyl)methyl]amino}-6-(4-methoxyphenyl)-7-oxo-8-hydropteridin-8-yl)ethyl]acetamide] | 160 nM |
| COc1ccc(-c2nc3cnc(NCc4ccc(Cl)c(Cl)c4)nc3n(CCNS(C)(=O)=O)c2=O)cc1 [Compound 2, 2-{[(3,4-dichlorophenyl)methyl]amino}-6-(4-methoxyphenyl)-8-{2-[(methylsulfonyl)amino]ethyl}-8-hydropteridin-7-one] | 2800 nM |
| COc1ccc(-c2nc3cnc(NCc4ccc(Cl)c(Cl)c4)nc3n([C@@H]3CCNC3)c2=O)cc1 [Compound 3, 8-((3R)pyrrolidin-3-yl)-2-{[(3,4-dichlorophenyl)methyl]amino}-6-(4-methoxyphenyl)-8-hydropteridin-7-one] | 5000 nM |
| COc1ccc(-c2nc3cnc(NCc4ccc(Cl)c(Cl)c4)nc3n(CCNC(=O)c3cccnc3)c2=O)cc1 [Compound 4, N-[2-(2-{[(3,4-dichlorophenyl)methyl]amino}-6-(4-methoxyphenyl)-7-oxo(8-hydropteridin-8-yl))ethyl]-3-pyridylcarboxamide] | 1600 nM |
| CCCC(=O)NCCn1c(=O)c(-c2ccc(OC)cc2)nc2cnc(NCc3ccc(Cl)c(Cl)c3)nc21 [Compound 5, N-[2-(2-{[(3,4-dichlorophenyl)methyl]amino}-6-(4-methoxyphenyl)-7-oxo-8-hydropteridin-8-yl)ethyl]butanamide] | 18000 nM |
| CCC(=O)NCCn1c(=O)c(-c2ccc(OC)cc2)nc2cnc(NCc3ccc(Cl)c(Cl)c3)nc21 [Compound 6, N-[2-(2-{[(3,4-dichlorophenyl)methyl]amino}-6-(4-methoxyphenyl)-7-oxo-8-hydropteridin-8-yl)ethyl]propanamide] | 2800 nM |
| COc1ccc(-c2nc3cnc(NCc4ccc(Cl)c(Cl)c4)nc3n(CCNC(=O)c3ccccc3)c2=O)cc1 [Compound 7, N-[2-(2-{[(3,4-dichlorophenyl)methyl]amino}-6-(4-methoxyphenyl)-7-oxo(8-hydropteridin-8-yl))ethyl]benzamide] | 560 nM |
| COCC(=O)NCCn1c(=O)c(-c2ccc(OC)cc2)nc2cnc(NCc3ccc(Cl)c(Cl)c3)nc21 [Compound 8, N-[2-(2-{[(3,4-dichlorophenyl)methyl]amino}-6-(4-methoxyphenyl)-7-oxo(8-hydropteridin-8-yl))ethyl]-2-methoxyacetamide] | 1800 nM |
| CC(=O)NCCn1c(=O)c(-c2cccnc2)nc2cnc(NCc3ccccc3)nc21 [Compound 9, N-(2-{7-oxo-2-[benzylamino]-6-(3-pyridyl)-8-hydropteridin-8-yl}ethyl)acetamide] | 2600 nM |
| COc1ccc(-c2nc3cnc(NCc4ccc(F)cc4)nc3n(CCNC(C)=O)c2=O)cc1 [Compound 10, N-[2-(2-{[(4-fluorophenyl)methyl]amino}-6-(4-methoxyphenyl)-7-oxo-8-hydropteridin-8-yl)ethyl]acetamide] | 1300 nM |
| CC(=O)NCCn1c(=O)c(-c2cccnc2)nc2cnc(NCc3ccc(F)cc3)nc21 [Compound 11, N-[2-(2-{[(4-fluorophenyl)methyl]amino}-7-oxo-6-(3-pyridyl)-8-hydropteridin-8-yl)ethyl]acetamide] | 5700 nM |
| CC(=O)NCCn1c(=O)c(-c2cccnc2)nc2cnc(NCc3ccc(Cl)c(Cl)c3)nc21 [Compound 12, N-[2-(2-{[(3,4-dichlorophenyl)methyl]amino}-7-oxo-6-(3-pyridyl)-8-hydropteridin-8-yl)ethyl]acetamide] | 230 nM |
| CC(=O)NCCn1c(=O)c(C(F)(F)F)nc2cnc(NCc3ccc(Cl)c(Cl)c3)nc21 [Compound 13, N-[2-(2-{[(3,4-dichlorophenyl)methyl]amino}-7-oxo-6-(trifluoromethyl)-8-hydropteridin-8-yl)ethyl]acetamide] | 2100 nM |
| CC(=O)NCCn1c(=O)c(-c2cccs2)nc2cnc(NCc3ccc(Cl)c(Cl)c3)nc21 [Compound 14, N-[2-(2-{[(3,4-dichlorophenyl)methyl]amino}-7-oxo-6-(2-thienyl)-8-hydropteridin-8-yl)ethyl]acetamide] | 2000 nM |
| O=c1c(-c2cccnc2)nc2cnc(NCc3ccc(Cl)c(Cl)c3)nc2n1CCn1cncn1 [Compound 15, 2-{[(3,4-dichlorophenyl)methyl]amino}-6-(3-pyridyl)-8-(2-(1,2,4-triazolyl)ethyl)-8-hydropteridin-7-one] | 5800 nM |
| COc1ccc(-c2nc3cnc(NCc4ccc(Cl)c(Cl)c4)nc3n(CCNC(=N)N)c2=O)cc1 [Compound 16, amino[2-(2-{[(3,4-dichlorophenyl)methyl]amino}-6-(4-methoxyphenyl)-7-oxo(8-hydropteridin-8-yl))ethyl]carboxamidine] | 11000 nM |
| CC(=O)NCCn1c(=O)cnc2cnc(NCc3ccc(Cl)c(Cl)c3)nc21 [Compound 17, N-[2-(2-{[(3,4-dichlorophenyl)methyl]amino}-7-oxo-8-hydropteridin-8-yl)ethyl]acetamide] | 340 nM |

Results, then the compound that gave them:

| IC50 | Structure (SMILES) |
| --- | --- |
| 13000 nM | COc1ccc(-c2nc3cnc(NCc4ccc(F)c(F)c4)nc3n(CCNC(C)=O)c2=O)cc1 [Compound 18, N-[2-(2-{[(3,4-difluorophenyl)methyl]amino}-6-(4-methoxyphenyl)-7-oxo-8-hydropteridin-8-yl)ethyl]acetamide] |
| 3400 nM | CC(=O)NCCn1c(=O)c(-c2cccs2)nc2cnc(NCc3ccc(F)c(F)c3)nc21 [Compound 19, N-[2-(2-{[(3,4-difluorophenyl)methyl]amino}-7-oxo-6-(2-thienyl)-8-hydropteridin-8-yl)ethyl]acetamide] |
| 22000 nM | CC(=O)NCCn1c(=O)c(C(F)(F)F)nc2cnc(NCc3ccc(F)cc3)nc21 [Compound 20, N-[2-(2-{[(4-fluorophenyl)methyl]amino}-7-oxo-6-(trifluoromethyl)-8-hydropteridin-8-yl)ethyl]acetamide] |
| 4340 nM | CC(=O)NCCn1c(=O)c(-c2ncccn2)nc2cnc(NCc3ccc(Cl)c(Cl)c3)nc21 [Compound 21, N-[2-(2-{[(3,4-dichlorophenyl)methyl]amino}-7-oxo-6-pyrimidin-2-yl-8-hydropteridin-8-yl)ethyl]acetamide] |
| 2210 nM | COc1ccc(-c2nc3cnc(NCc4ccc(Cl)c(Cl)c4)nc3n(CCNC(C)=O)c2=O)cc1F [Compound 22, N-[2-(2-{[(3,4-dichlorophenyl)methyl]amino}-6-(3-fluoro-4-methoxyphenyl)-7-oxo-8-hydropteridin-8-yl)ethyl]acetamide] |
| 470 nM | COc1ccc(-c2nc3cnc(NCc4ccc(Cl)c(Cl)c4)nc3n(CCNC(=O)c3ccsc3)c2=O)cc1 [Compound 23, N-[2-(2-{[(3,4-dichlorophenyl)methyl]amino}-6-(4-methoxyphenyl)-7-oxo(8-hydropteridin-8-yl))ethyl]-3-thienylcarboxamide] |
| 1300 nM | COc1ccc(-c2nc3cnc(NCc4cccc(Cl)c4)nc3n(CCNC(C)=O)c2=O)cc1 [Compound 24, N-[2-(2-{[(3-chlorophenyl)methyl]amino}-6-(4-methoxyphenyl)-7-oxo-8-hydropteridin-8-yl)ethyl]acetamide] |
